What was measured:
Format in all cases: in vivo, mice
[1] = test system: MDA-MB 435 human melanoma cells; assay: Fluorescence uptake of Cy5-labeled selective transport molecules in tumor and muscle (Table 2), MDA-MB 435
Protocol: (§1) Xenografts with HT1080 human fibroscarcoma cells (ATCC) or MDA-MB 435 human melanoma cells were used. Allografts were generated in the lab with 8119 murine mammary adenocarcinoma cells and B16F10 murine melanoma cells. 1×10^6 cells (either 8119 or BI6F10) were injected intramuscularly into the left flank of albino C57BL/6 mice. Tumor allografts were monitored until tumor size was approximately 1 cm in largest diameter (approximately 7-10 days).
(§2) Briefly 30 mg tissues was homogenized and heated in SDS buffer, frozen, and then imaged by fluorescence. SUV ((moles/g tissue)/(moles injected/weight of the animal)) values were determined by comparing experimental fluorescence to standard curves derived by peptide spiked tissue processed similarly.
(§3) To test whether selective transport molecules are taken up differentially between tumor and normal tissue, allografts derived from spontaneous mammary adenocarcinoma tumors in transgenic mice (line 8119, MMTV-PyMT) and the murine melanoma cell line B16F10 transplanted into immune competent mice, and human cancer cell lines (MDA-MB 435 melanoma and HT1080 fibrosarcoma) xenografted into nude mice, were imaged after intravenous injection of Cy5-labeled selective transport molecules and sufficient time for elimination of uncleaved selective transport molecules. Cy5 was chosen as a labeling marker because of its reduced tissue absorption in the near infrared range.

[2] = as above; settings: nude, mouse, in vivo, iv; MDA-MB 435 xenograft
Protocol: as §1, §2, §3

[3] = Fluorescence uptake of Cy5-labeled selective transport molecules in tumor and muscle (Table 2), HT1080; settings: nude, mouse, in vivo, iv; HT1080 xenograft
Protocol: as §1, §2, §3

[4] = test system: HT1080 human fibroscarcoma cells; assay: as above; settings: HT1080 xenograft
Protocol: as §1, §2, §3

HT1080 cells = assay: Residual tumor cell quantification with Alu PCR after guided surgery; settings: free 10 nmoles 6 hours, dendrimer 2 nmoles 48 hours prior to surgery
Protocol: Animals used for quantification of residual tumor cells after surgery were performed on xenograft of HT1080 cells generated as detailed above Animals were anesthetized with 80 mg/kg ketamine and 40 mg/kg midazolam. Following skin incision and retraction, tumors were removed with microsurgical technique using a dissecting microscope (Zeiss, Lumar).
Fluorescence guidance of tumor excision was performed as detailed above for the survival studies with GFP, free selective transport molecule (10 nmoles; 6 hours prior to surgery) or dendrimer selective transport molecule (2 nmoles; 48 hours prior to surgery). For animals in the GFP guidance arm, the surgical field was assessed through the dissecting scope with excitation and emission parameters for GFP. […] Following completion of tumor resection, the remaining surgical bed was resected with at least a 5 mm margin in all contiguous dimensions and analyzed for Alu sequences. Alu PCR analysis of the remaining surgical bed for residual tumor cells were performed. […]
To quantify the efficacy of tumor excision with selective transport molecule guidance, we used Alu PCR to measure residual human (cancer) cells remaining in the tumor bed after surgical excision.

[5] = test system: 8119 murine mammary adenocarcinoma cells; assay: Fluorescence uptake of Cy5-labeled selective transport molecules in tumor and muscle (Table 2), 8119; settings: 8119 allograft
Protocol: as §1, §2, §3

[6] = as above; settings: albino C57BL/6, mouse, in vivo, iv; 8119 allograft
Protocol: as §1, §2, §3

[7] = test system: B16F10 murine melanoma cells; assay: Fluorescence uptake of Cy5-labeled selective transport molecules in tumor and muscle (Table 2), B16F10; settings: B16F10 allograft
Protocol: as §1, §2, §3

[8] = as above; settings: albino C57BL/6, mouse, in vivo, iv; B16F10 allograft
Protocol: as §1, §2, §3

CCN1C(=CC=CC=CC2=[N+](CCCCCC(=O)NCCN3C(=O)CC(SC[C@@H](NC(=O)[C@@H](CCCNC(=N)N)NC(=O)[C@@H](CCCNC(=N)N)NC(=O)[C@@H](CCCNC(=N)N)NC(=O)[C@@H](CCCNC(=N)N)NC(=O)[C@@H](CCCNC(=N)N)NC(=O)[C@@H](CCCNC(=N)N)NC(=O)[C@@H](CCCNC(=N)N)NC(=O)[C@@H](CCCNC(=N)N)NC(=O)[C@@H](CCCNC(=N)N)NC(=O)CNC(=O)[C@H](C)NC(=O)[C@H](CSC)NC(=O)CNC(=O)[C@H](CC(C)C)NC(=O)[C@@H]4CCCN4C(=O)COCCNC(=O)[C@@H](CCC(=O)O)NC(=O)[C@@H](CCC(=O)O)NC(=O)[C@@H](CCC(=O)O)NC(=O)[C@@H](CCC(=O)O)NC(=O)[C@@H](CCC(=O)O)NC(=O)[C@@H](CCC(=O)O)NC(=O)[C@@H](CCC(=O)O)NC(=O)[C@@H](CCC(=O)O)NC(=O)CCC(=O)O)C(N)=O)C3=O)c3ccc(S(=O)(=O)[O-])cc3C2(C)C)C(C)(C)c2cc(S(=O)(=O)O)ccc21 (single isomer, unassigned) [Free Selective Transport Molecules]
Ratio (tumor to muscle) ([1]; MDA-MB 435 xenograft): 2.45 | Muscle (fluorescence uptake) ([1]; MDA-MB 435 xenograft, Cy5 label, intravenous): 0.29 ± 0.068 | Tumor (fluorescence uptake) ([1]; MDA-MB 435 xenograft, Cy5 label, intravenous, SUV defined): 0.17 ± 0.05 | contrast between tumor and adjacent normal tissue ([1]; same figures as the MDA-MB 435 ratios of Table 2): 2.45 fold | tissue to tissue ratio [2]: 2.45 | tissue to tissue ratio [3]: 3.82 | Ratio (tumor to muscle) [4]: 3.82 | Muscle (fluorescence uptake) ([4]; Cy5 label, intravenous): 0.11 ± 0.08 | Tumor (fluorescence uptake) ([4]; Cy5 label, intravenous): 0.42 ± 0.08 | log [DNA] (residual tumor DNA in surgical bed) (HT1080 cells): 4.67±0.33 | Ratio (tumor to muscle) [5]: 3.5 | Muscle (fluorescence uptake) ([5]; Cy5 label, intravenous): 0.11 ± 0.06 | Tumor (fluorescence uptake) ([5]; Cy5 label, intravenous): 0.39 ± 0.12 | tissue to tissue ratio [6]: 3.5 | Ratio (tumor to muscle) [7]: 2.4 | Muscle (fluorescence uptake) ([7]; Cy5 label, intravenous): 0.10 ± 0.03 | Tumor (fluorescence uptake) ([7]; Cy5 label, intravenous): 0.24 ± 0.06 | tissue to tissue ratio [8]: 2.4

— patent US9682151B2, “Peptides whose uptake in cells is controllable” (The Regents of the University of California, priority 2009, dated 2017)
